Assay results reported in PubChem BioAssay (NCI).
Where “and” joins values, the source holds several entries; their conditions need not be identical. Equal entries are not always repeated.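 Growth conditions: 96-well plates. Treatment: test compound, 48 hours, 5 concentrations. Analysis: linear interpolation between bracketing concentrations; unreached endpoints set to highest concentration. At the GI50, growth is halved. Definition used: TGI = concentration required for complete inhibition of growth.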

Experiments:
Assay in all cases: DTP human tumour cell line panel, 48 h
DLD-1 colon = test system: DLD-1 colon
DMS 114 small cell lung = test system: DMS 114 small cell lung
XF 498 CNS = test system: XF 498 CNS
HOP-18 NSCLC = test system: HOP-18 NSCLC
T-47D breast = test system: T-47D breast
MCF7 breast = test system: MCF7 breast
MDA-N = test system: MDA-N
BT-549 breast = test system: BT-549 breast
RXF-631 renal = test system: RXF-631 renal

| SMILES | TGI (DLD-1 colon) [µM] | TGI (DMS 114 small cell lung) [µM] | TGI (XF 498 CNS) [µM] | TGI (HOP-18 NSCLC) [µM] | TGI (T-47D breast) [µM] | TGI (MCF7 breast) [µM] | TGI (BT-549 breast) [µM] | TGI (RXF-631 renal) [µM] | further results |
| --- | --- | --- | --- | --- | --- | --- | --- | --- | --- |
| CCOC(OC1=C(C#N)CCC1)C(CC)[Se]c1ccccc1 (stereo not given) | 41.2 | 10.4 | 49.7 | 69.5 | – | – | – | – | – |
| COc1ccc(N=Cc2ccc(N(CCC#N)CCC#N)cc2)cc1 | > 100 | > 100 | > 100 | > 100 | > 100 | > 100 | > 100 | – | TGI (MDA-N): > 100 µM |
| Cn1nnnc1[N-]Cc1ccccc1.[Au+].c1ccc([PH+](c2ccccc2)c2ccccc2)cc1 | 4.59 | 4.83 | – | 4.98 | – | – | – | – | GI50 (DLD-1 colon): 1.91 µM; GI50 (DMS 114 small cell lung): 1.53 µM; GI50 (HOP-18 NSCLC): 2.25 µM |
| Cc1ccc(S(=O)(=O)ON/N=C2/C3OC3[C@@H]3CCCC[C@H]23)cc1 (stereo not given in full) | > 100 | – | > 100 | > 100 | – | – | – | – | – |
| COC1C(=O)CCC2(CO2)C1(O)C1(C)OC1CCC(C)C (stereo not given) | – | – | – | – | > 100 | > 100 | > 100 | – | TGI (MDA-N): > 100 µM |
| O=C(O)c1[nH]c(C(=O)O)c(CC(F)(F)C(F)(F)C(F)(F)F)c1CC(F)(F)C(F)(F)C(F)(F)F | > 100 | > 100 | > 100 | > 100 | – | – | – | > 100 | – |
| O=C1Cc2c(-c3ccccc3)cc(-c3cccc(Cl)c3)nc2-c2ccccc2N1 | – | – | – | – | 6.01 | > 22.6 | 22.1 | – | TGI (MDA-N): 31.6 µM |
| CC1(C)OC2C(=O)OC(COCc3ccccc3)C2O1 (stereo not given) | > 100 | – | – | > 100 | – | – | – | > 100 | – |
| Cn1cc(NC(=O)c2cc(NC(=O)CCCCCC(=O)Nc3cc(C(=O)Nc4cc(C(=O)NCCC(=N)N)n(C)c4)n(C)c3)cn2C)cc1C(=O)NCCC(=N)N | > 100 | > 100 | > 100 | > 100 | – | – | – | > 100 | – |
| Cc1ccc(C)c(NC(=O)/C(=N\NC(N)=S)C(C#N)c2ccccc2)c1 (stereo not given) | > 100 | > 100 | > 100 | > 100 | – | – | – | – | – |
| N#C/C(=C(\O)C(=O)O)c1ccc(-c2cccc3ccccc23)cc1 | – | – | – | – | > 100 | > 100 | > 100 | – | TGI (MDA-N): > 100 µM |
| Nc1ccc2c(c1)[O][Sn]([c]1ccccc1)([c]1ccccc1)[O]C2=O | 15.4 | 18.7 | – | 29 | – | 8.52 | 6.4 | 29.9 | GI50 (MCF7 breast): 3.95 µM; GI50 (MDA-N): 2.95 µM; TGI (MDA-N): 9.26 µM; GI50 (RXF-631 renal): 15.9 µM; GI50 (BT-549 breast): 1.98 µM; GI50 (DLD-1 colon): 4.24 µM; GI50 (DMS 114 small cell lung): 6.68 µM; GI50 (HOP-18 NSCLC): 15.6 µM |
| COc1ccc(/C=[N+](\[O-])[C@H](COCc2ccccc2)c2ccccc2)cc1 | > 100 | > 100 | > 100 | > 100 | – | – | – | > 100 | – |
| c1cc2c(cnc3cscc32)s1 | > 100 | > 100 | > 100 | – | – | – | – | > 100 | – |
| Cc1c2ncccc2c(C)c2c1[nH]c1ccccc12 | 23.2 | – | 25.3 | 27.3 | – | – | – | – | – |
| CC(SC1=CC(=O)c2c(O)ccc(O)c2C1=O)C(=O)O (stereo not given) | > 57.1 | 44 | > 82.2 | > 90.3 | – | – | – | > 100 | – |
| [Cl][Sn]([c]1ccccc1)[c]1ccccc1 | 13.7 | 19.4 | 5.22 | 9.24 | – | – | – | 27 | GI50 (RXF-631 renal): 3.86 µM; GI50 (DLD-1 colon): 3.65 µM; GI50 (DMS 114 small cell lung): 3.47 µM; GI50 (XF 498 CNS): 2.68 µM; GI50 (HOP-18 NSCLC): 3.27 µM |
| O=C(O)C(Cc1ccc(O)c([N+](=O)[O-])c1)N1C(=O)c2ccccc2C1=O (stereo not given) | – | – | – | – | > 100 | > 100 | > 100 | – | TGI (MDA-N): > 100 µM |
| Nc1ncnc2c1ncn2C1OC(C(=O)O)C(O)C1O (stereo not given) | – | – | – | – | > 100 | > 100 | > 100 | – | TGI (MDA-N): > 100 µM |
| COc1cc2ccc3c4cc(OC)c(OCc5ccccc5)cc4cnc3c2cc1OC | > 100 | > 100 | > 100 | – | – | – | – | – | – |
| c1cncc(C2c3[nH]c4ccccc4c3CCN2CCN2CCCCC2)c1 (stereo not given) | > 100 | > 100 | > 100 | > 100 | – | – | – | > 100 | – |
| C=CCN(N=O)C(=O)N(CCC)CCCC(NC(C)=O)C(=O)NCc1ccccc1 (stereo not given) | – | > 100 | > 100 | > 100 | – | – | – | > 100 | – |
| O=C1C=C(c2cc(Br)c(O)c(Br)c2)/C(=C/c2cc(Br)c(O)c(Br)c2)O1 | – | – | – | – | > 75 | > 75 | > 75 | – | GI50 (T-47D breast): > 75 µM; GI50 (MCF7 breast): 37 µM; GI50 (MDA-N): 33 µM; TGI (MDA-N): > 75 µM; GI50 (BT-549 breast): 28.6 µM |
| CCCN(CCCCC(NC(C)=O)C(=O)NCc1ccccc1)C(=O)NC (stereo not given) | > 100 | > 100 | > 100 | – | – | – | – | > 100 | – |
| COC(=O)/C(=N/NC(C)(C)C)C(C(=O)C=C(C)C)C(=O)C(=O)Nc1ccc(Cl)cc1C (stereo not given) | – | > 100 | > 100 | – | – | – | – | – | – |

| SMILES | TGI (DLD-1 colon) [µM] | TGI (DMS 114 small cell lung) [µM] | TGI (XF 498 CNS) [µM] | TGI (HOP-18 NSCLC) [µM] | TGI (T-47D breast) [µM] | TGI (MCF7 breast) [µM] | TGI (BT-549 breast) [µM] | TGI (RXF-631 renal) [µM] | further results |
| --- | --- | --- | --- | --- | --- | --- | --- | --- | --- |
| CC(=O)O/C(C)=C\C(=O)O/N=C(\N)c1ccc(C)cc1 | 50.9 | 45 | > 100 | 98.6 | – | – | – | 61.1 | – |
| O=C(N=Nc1c(O)[nH]c2ccccc12)c1ccccc1O | > 100 | > 100 | – | > 100 | – | – | – | – | – |
| CN(C)CCNC(=O)c1cccc(CO)c1[N+](=O)[O-] | – | – | – | – | > 100 | > 100 | > 100 | – | TGI (MDA-N): > 100 µM |
| CC(C)(C)C([O-])=C1C(=O)c2ccccc2C1=O.CC(C)(C)C([O-])=C1C(=O)c2ccccc2C1=O.CC[O-].CC[O-].[Ti+4] | > 100 | – | – | 83.3 | – | – | – | – | GI50 (DLD-1 colon): 46.9 µM; GI50 (HOP-18 NSCLC): 18.2 µM |
| CC(C)(C)N=CN1CCC(C(c2ccccc2)c2ccccc2)CC1 | > 100 | > 100 | > 100 | > 100 | – | – | – | – | – |
| OCCCNCc1ccccn1 | – | – | – | – | > 100 | > 100 | > 100 | – | TGI (MDA-N): > 100 µM |
| CCOC(=O)c1c2ccc(/C=C/C(=O)OC)ccc-2c(C(=O)OCC)c1N | > 100 | > 100 | – | > 100 | – | – | – | – | – |
| CCOC(=O)C(=O)Nc1c(C)cccc1CC | > 100 | > 100 | > 100 | > 100 | – | – | – | > 100 | – |
| CCCCCCCCCCCCC(SCCNC(=O)CCNC(=O)C(O)C(C)(C)COP(=O)(O)OP(=O)(O)OCC1OC(n2cnc3c(N)ncnc32)C(O)C1OP(=O)(O)O)C(=O)NCC(N)=O (stereo not given) | > 100 | > 100 | – | > 100 | – | – | – | > 100 | – |
| O=c1oc2c3ccc4ccccc4c3n(Cc3nc4ccccc4[nH]3)c2c2ccccc12 | > 100 | > 100 | – | > 100 | – | – | – | – | – |
| Cc1ccc(S(=O)(=O)NCCN2c3nc4ccccc4cc3Sc3cc4ccccc4nc32)cc1 | – | – | – | – | > 100 | > 100 | > 100 | – | GI50 (T-47D breast): 4.54 µM; GI50 (MCF7 breast): > 100 µM; GI50 (BT-549 breast): 17.4 µM |
| CCN(CC)CC(C)Nc1ccc(C)c2sc3ccccc3c(=O)c12 (stereo not given) | – | – | – | – | 19.4 | 6.96 | 21 | – | GI50 (T-47D breast): 3.28 µM; GI50 (MCF7 breast): 2.1 µM; GI50 (BT-549 breast): 7.14 µM |
| CCOC(=O)/C=C/c1ccc(C(=O)OCC)[nH]1 | – | – | – | – | > 100 | > 100 | > 100 | – | GI50 (T-47D breast): 6.32 µM; GI50 (MCF7 breast): 3.06 µM; GI50 (BT-549 breast): 6.76 µM |
| O=C1c2cccc3cc([N+](=O)[O-])cc(c23)C(=O)N1CCCN1CCN(CCCN2C(=O)c3cccc4cc([N+](=O)[O-])cc(c34)C2=O)CC1 | > 100 | – | 4.06 | 7.81 | – | – | – | 3.21 | – |
| COc1ccc2c(C3(O)CCNCC3)c[nH]c2c1 | > 100 | – | – | > 100 | – | – | – | > 100 | – |
| COC(=O)C12C3C4C1C1C2C3C41I (stereo not given) | > 100 | > 100 | > 100 | > 100 | – | – | – | > 100 | – |
| Cc1cc2occ(C)c(=O)c2c2c1OC(C)(C)S2 | > 100 | > 100 | > 100 | > 100 | – | – | – | – | – |
| CCCCCCCCCCCC(=O)C1=C(O)C(O)CCC1=O (stereo not given) | > 100 | 50.5 | 26.4 | 86.5 | – | – | – | – | – |
| O=S(=O)(O)c1ccc2cc(N=Nc3cc(S(=O)(=O)O)c4cccnc4c3O)ccc2c1 | – | – | – | – | > 100 | > 100 | > 100 | – | TGI (MDA-N): > 100 µM |
| c1ccc(COc2ccc3[nH]c4c(ncc5[nH]c6ccccc6c54)c3c2)cc1 | 17.7 | 38.3 | 26.6 | 26.1 | – | – | – | – | – |
| c1cc(-c2sc(-c3ccncc3)c(-c3ccncc3)c2-c2ccncc2)ccn1 | – | – | – | – | > 100 | 52 | 42 | – | TGI (MDA-N): 29 µM |
| CCc1cccc(C)c1NC(=O)CC1Sc2ccccc2NC1=O (stereo not given) | > 100 | > 100 | > 100 | > 100 | – | – | – | > 100 | – |
| CCOC(=O)/C=C(/CN1C(=O)c2ccccc2C1=O)c1ccccc1 | > 100 | > 100 | > 100 | > 100 | – | – | – | – | – |
| Cn1cnc([N+](=O)[O-])c1Sc1ncnc2nc[nH]c12 | – | – | – | – | > 100 | > 100 | > 100 | – | GI50 (T-47D breast): 2.75 µM and 4.51 µM; GI50 (MCF7 breast): 2.92 µM and 3.69 µM; GI50 (BT-549 breast): 12.2 µM and 7.26 µM |
| CCOC(=O)/C(C1=CC(=O)C(=O)c2ccccc21)=C(/C)NCc1ccccc1 | – | – | – | – | > 100 | 4.75 | 6.18 | – | GI50 (T-47D breast): 2.27 µM; GI50 (MCF7 breast): 2.05 µM; GI50 (BT-549 breast): 3.29 µM |
